Here are results for 17 compounds from patent US7459446B2, “Treatment of diabetes with copper binding compounds” (priority 1998, dated 2008).

Where two headings read alike, the source gives them in different places. Marks after values point to notes of the source that are not given here.

Series [1] has as its system fructosamine oxidase. Nature of the series: fructosamine oxidase inhibition assay in human sera (ferricytochrome c, g-BSA substrate). In kind it is biochemical. From the text:
The effectiveness of the inhibitor was expressed not by an equilibrium constant but by a velocity constant (K) which determined the fraction of the enzyme inhibited in a given period of time by a certain concentration of inhibitor.

Series [2] deals with streptozocin-diabetic rat (STZ rat). Nature of the series: First preclinical study: intravenous streptozotocin diabetic rat, 8 months. In kind it is in vivo, Wistar rats. The settings on record: for Survivors at week 32 / mean weight change amongst surviving study animals: rat, in vivo; for Glucose: week 4, mean±SD; for Glucose / HbA1c: 50 mg/L in drinking water; for HbA1c: week 32, mean±SD.

The test system of series [3] is fructosamine oxidase. The series is described as follows: fructosamine oxidase inhibition assay in human sera (ferricytochrome c, g-BSA substrate). Format: biochemical. The settings on record: read-out: IC50 (concentration of inhibitor causing 50% inactivation of the enzyme).
The conditions of series [4]: cited from earlier work; for bioavailability: oral administration.
Series [5] concerns streptozocin-diabetic rat (STZ rat). Nature of the series: Second preclinical study: intraperitoneal streptozotocin diabetic rat, 6 months. In kind it is in vivo, Wistar rats. The settings on record: for Mean ± SEM weight gain: beginning to end of the 24 week period; for effect on weight gain (in words): compared with untreated STZ diabetic control rats, 6-month period; for % with cataract / No with cataract: gross cataract formation; for % with cataract / No with cataract / No with severe fibrosis: week 24; for No with severe fibrosis: gross myocardial fibrosis; for mortality rate: rat, in vivo. Also on record: Mean ± SEM weight gain: unit not given here.

For series [6] the following is noted: beagle dogs, cited from earlier work.
For series [7] the following is noted: solutions exposed to light at room temperature, 24 hours; cited from earlier work.
For series [8] the following is noted: cited from earlier work.
The mark [9] stands for this setting: fresh human sera, 0-1,000 μM inhibitor, 0.05 M TES buffer pH 7.4, 37° C., 5 minutes.

On to `O=C(O)CN(CCN(CC(=O)O)CC(=O)O)CC(=O)O` [EDTA, ethylenediamine tetraacetic acid], for which the “K (velocity/rate constant)” value in series [1] (10.0 μM inhibitor (*)) is recorded as 0.0755* min^−1. For the same compound, in series [2], the “Survivors at week 32” value was 5, the “mean weight change amongst surviving study animals” value is listed as “+1.2%”, the Glucose is 39.0 ± 6.04 mmol/L and the HbA1c stood at 9.30 ± 0.63%. In addition, in series [3] (pH 7.4), the IC50 is 15.7 µM. The bioavailability entry in series [4] was “less than 5%”.
For the compound `CC(=O)N[C@@H](CS)C(=O)O` [acetylcysteine], the “K (velocity/rate constant)” value in series [1] (1.0 μM inhibitor) is 0.1677 min⁻¹. Further, in series [2], the “Survivors at week 32” value is 7, the “mean weight change amongst surviving study animals” value is −8.1%, the Glucose amounted to 37.8 ± 5.2 mmol/L and the HbA1c amounted to 9.47 ± 1.23%. Also, the IC50 in series [3] (pH 7.4) was determined as 0.83 µM.
Consider `CC(=O)N[C@H](C(=O)O)C(C)(C)S` [acetylpenicillamine], for which the “K (velocity/rate constant)” value in series [1] (1.0 μM inhibitor) was 0.0811 min⁻¹. In addition, in series [3] (setting [9]), the IC50 stood at 1.06 µM.
Turning to `N=C(N)NN` [aminoguanidine], the “K (velocity/rate constant)” value in series [1] (10.0 μM inhibitor (*)) is 0.0067* min^−1. Moreover, the IC50 in series [3] (setting [9]) was 231 µM.
The matching figures for `NC(CO)C(=O)NNCc1ccc(O)c(O)c1O` (centres unmarked) [benserazide]: 0.0095* min^−1 and 13.6 µM.
Turning to `C[C@H](CS)C(=O)N1CCC[C@H]1C(=O)O` [captopril], in series [1] (1.0 μM inhibitor), the “K (velocity/rate constant)” value was 0.0259 min⁻¹. This compound registered a HbA1c in series [5] (Week 4, mean±SD) of 8.5 ± 0.9. Moreover, in series [5] (Week 12, mean±SD), the HbA1c is 9.2 ± 1.1. Besides, the HbA1c in series [5] (Week 24, mean±SD) stood at 9.4 ± 01.3. For the same compound, in series [5], the “Mean ± SEM weight gain” value worked out at 60.7 ± 20.7, the “effect on weight gain (in words)” value was “ineffective”, the “% with cataract” value is listed as 25% and the No with cataract is on record as 2. Also, in series [5], the “No with severe fibrosis” value is 6 and the mortality rate turned out to be 0%. Further, in series [3] (pH 7.4), the IC50 amounted to 1.78 µM. Further, the “binding in vivo to albumin and other plasma proteins” value in series [4] (in vivo) is listed as “almost completely bound”. Moreover, in series [4], the bioavailability result was “approximately 65%”.
For the compound `C[C@@](Cc1ccc(O)c(O)c1)(NN)C(=O)O` [carbidopa], the “K (velocity/rate constant)” value in series [1] (1.0 μM inhibitor) was 0.1496 min⁻¹. Further, the HbA1c in series [5] (Week 4, mean±SD) is listed as 9.0 ± 1.0. The HbA1c in series [5] (Week 12, mean±SD) came to 9.6 ± 0.7. The compound also displayed a HbA1c in series [5] (Week 24, mean±SD) of 9.9 ± 1.1. In series [5], the “Mean ± SEM weight gain” value amounted to 33.7 ± 20.4, the “effect on weight gain (in words)” value is recorded as “ineffective”, the “% with cataract” value is 25% and the No with cataract turned out to be 2. Moreover, in series [5], the “No with severe fibrosis” value is on record as 2 and the mortality rate was determined as 0%. Besides, the IC50 in series [3] (pH 7.4) stood at 0.5 µM. In addition, the absolute bioavailability in series [6] (oral) is on record as 88%. Besides, in series [6], the biological half-life is 5 hours and the oral absorption result is “almost complete”. Besides, the oxidative degradation in series [7] is on record as 50%.
Turning to `CC(=O)N(O)CCCCCNC(=O)CCC(=O)N(O)CCCCCNC(=O)CCC(=O)N(O)CCCCCN` [desferrioxamine], the “K (velocity/rate constant)” value in series [1] (10.0 μM inhibitor (*)) is on record as 0.0109* min^−1. Also, the IC50 in series [3] (pH 7.4) was 40.6 µM.
Regarding `N/N=C(\N)NN` [diaminoguanidine], the “K (velocity/rate constant)” value in series [1] worked out at 0.1340 min⁻¹. The IC50 in series [3] (pH 7.4) amounted to 0.36 µM.
Consider `CCOC(=O)[C@H](CCc1ccccc1)N[C@@H](C)C(=O)N1CCC[C@H]1C(=O)O` [enalapril], for which, in series [1] (1.0 μM inhibitor), the “K (velocity/rate constant)” value came out at 0.0326 min⁻¹. The IC50 in series [3] (setting [9]) came out at 3.95 µM.
On to `N[C@@H](Cc1c[nH]cn1)C(=O)O` [histidine], for which the “K (velocity/rate constant)” value in series [1] (1.0 μM inhibitor) is 0.0554 min⁻¹. Also, the IC50 in series [3] (setting [9]) came to 2.29 µM.
Take `NNc1nncc2ccccc12` [hydralazine]: in series [2], the “Survivors at week 32” value is 6, the “mean weight change amongst surviving study animals” value was −11.0%, the Glucose amounted to 35.7 ± 9.5 mmol/L and the HbA1c turned out to be 8.65 ± 1.18%. For the same compound, the bioavailability in series [8] (man, oral administration) is recorded as 26-55%. Also, the “drug excreted in the urine unchanged” value in series [8] (over 24 hours after oral administration) is on record as 2.0-3.6%.
For `NCCCC[C@H](N[C@@H](CCc1ccccc1)C(=O)O)C(=O)N1CCC[C@H]1C(=O)O` [lisinopril], the “K (velocity/rate constant)” value in series [1] (1.0 μM inhibitor) is 0.0174 min⁻¹. The IC50 in series [3] (setting [9]) came to 217 µM.
Take `c1cnc2c(c1)ccc1cccnc12` [o-phenathroline]: the “K (velocity/rate constant)” value in series [1] (1.0 μM inhibitor) worked out at 0.0385 min⁻¹. In series [3] (setting [9]), the IC50 came to 4.25 µM.
With `NNC(=O)C(=O)NN` [oxalic dyhydrazide], the “K (velocity/rate constant)” value in series [1] (1.0 μM inhibitor) was 0.0542 min⁻¹. In series [3] (setting [9]), the IC50 is 1.59 µM.
Consider `NNc1ccccc1` [phenylhydrazine], for which the “K (velocity/rate constant)” value in series [1] was found to be 0.1160 min⁻¹. The IC50 in series [3] (pH 7.4) turned out to be 0.81 µM.
Regarding `NNC(N)=O` [semicarbazide], the “K (velocity/rate constant)” value in series [1] is given as 0.0276* min^−1. The IC50 in series [3] (pH 7.4) was 45 µM.
